“Also recorded” adds a separate entry of the source.
test system: microorganisms; test: Targeting peptide binding to target microorganisms (Tables 3, 10, 12); conditions: microorganism(s) the targeting peptide binds; binding in aqueous buffers that varied with peptide solubility, preferably 1x PBS

| Substance | Target(s) |
| --- | --- |
| 1T-185 (HYHFLLEFGFHKGDYLE; Peptide with targeting and/or antimicrobial activity) | S. mitis; also recorded: S. mutans; also recorded: S. oralis; also recorded: S. salivarious; also recorded: S. sanguinis |
| 1T-188 (HRKDVYKK; Peptide with targeting and/or antimicrobial activity) | S. sanguinis |
| 1T-192 (ILVLLALQVELDSKFQY; Peptide with targeting and/or antimicrobial activity) | S. sanguinis |
| 1T-193 (LMIFDKHANLKYKYGNRSFGVEAIM; Peptide with targeting and/or antimicrobial activity) | S. sanguinis |
| 1T-195 (AASGFTYCASNGVWHPY; Peptide with targeting and/or antimicrobial activity) | S. mutans |
| 1T-196 (KPEKEKLDTNTLMKVVNKALSLFDRLLIKFGA; Peptide with targeting and/or antimicrobial activity) | F. nucleatum; also recorded: S. sanguinis |
| 1T-198 (MPVSKKRYMLSSAYATALGICYGQVATDEKESEITAIPDLLDYLSVEEYLL; Peptide with targeting and/or antimicrobial activity) | P. gingivalis; also recorded: S. epidermidis; also recorded: S. gordonii; also recorded: S. mitis; also recorded: S. mutans; also recorded: S. oralis; also recorded: S. sanguinis |
| 1T-199 (RAGRIKKLSQKEAEPFEN; Peptide with targeting and/or antimicrobial activity) | S. sanguinis |
| 1T-201 (KRKHENVIVAEEMRVIKN; Peptide with targeting and/or antimicrobial activity) | S. sanguinis |
| 1T-207 (SPLEKYGTGSMTALTFLLGCCLLVLSKKSR; Peptide with targeting and/or antimicrobial activity) | F. nucleatum; also recorded: S. sanguinis |
| 1T-215 (VCFKDISVFLSPFRGQEVLFCGKAKHSLIYVIGT; Peptide with targeting and/or antimicrobial activity) | S. sanguinis |
| 1T-216 (FFLNVIAIRIPHF; Peptide with targeting and/or antimicrobial activity) | S. sanguinis |
| 1T-217 (MLSNVLSRSVVSPNVDIPNSMVILSPLLISISNYH; Peptide with targeting and/or antimicrobial activity) | F. nucleatum; also recorded: S. sanguinis |
| 1T-218 (KLIFAALGLVFLLIGLRDSRSK; Peptide with targeting and/or antimicrobial activity) | F. nucleatum; also recorded: S. sanguinis |
| 1T-219 (RNINVSATFITEKSLV; Peptide with targeting and/or antimicrobial activity) | S. sanguinis |
| 1T-222 (RIEASLISAIMFSMFNAIVKFLQK; Peptide with targeting and/or antimicrobial activity) | F. nucleatum; also recorded: S. sanguinis |
| 1T-237 (EDPVPNHFTLRRNKKEKPSKS; Peptide with targeting and/or antimicrobial activity) | S. sanguinis |
| 1T-239 (ADDLLNKRLTDLIMENAETVKTIDLDNSD; Peptide with targeting and/or antimicrobial activity) | A. naeslundii; also recorded: S. gordonii; also recorded: S. mitis; also recorded: S. mutans; also recorded: S. oralis; also recorded: S. sanguinis |
| 1T-242 (KQVQNTTLIICGTVLLGILFKSYLKSQKSV; Peptide with targeting and/or antimicrobial activity) | F. nucleatum; also recorded: S. sanguinis |
| 1T-248 (IGGALNSCG; Peptide with targeting and/or antimicrobial activity) | S. sanguinis |

| Substance | Target(s) |
| --- | --- |
| 1T-249 (VFSVLKHTTWPTRKQSWHDFISILEYSAFFALVIFIFDKLLTLGLAELLKRF; Peptide with targeting and/or antimicrobial activity) | F. nucleatum; also recorded: S. sanguinis |
| 1T-250 (LVQGDTILIENHVGTPVKDDGKDCLIIREADVLAVVND; Peptide with targeting and/or antimicrobial activity) | S. mitis; also recorded: S. mutans; also recorded: S. oralis |
| 1T-252 (MKKNLKRFYALVLGFIIGCLFVSILIFIGY; Peptide with targeting and/or antimicrobial activity) | F. nucleatum; also recorded: S. sanguinis |
| 1T-256 (KGKSLMPLLKQINQWGKLYL; Peptide with targeting and/or antimicrobial activity) | S. sanguinis |
| 1T-258 (TINIDDKVLDYLKKINSKAITIDLIGCAS; Peptide with targeting and/or antimicrobial activity) | A. naeslundii; also recorded: F. nucleatum; also recorded: P. gingivalis; also recorded: T. denticola; also recorded: S. mitis; also recorded: S. mutans; also recorded: S. oralis |
| 1T-259 (EKLKKILLKLAVCGKAWYTL; Peptide with targeting and/or antimicrobial activity) | F. nucleatum; also recorded: P. gingivalis; also recorded: T. denticola; also recorded: S. mitis; also recorded: S. mutans; also recorded: S. oralis; also recorded: S. sanguinis |
| 1T-260 (NILYFIHDENQWEPQKAEIFRGSIKHCAWLSS; Peptide with targeting and/or antimicrobial activity) | A. naeslundii; also recorded: P. gingivalis; also recorded: S. epidermidis; also recorded: S. gordonii; also recorded: S. mitis; also recorded: S. mutans; also recorded: S. oralis; also recorded: S. sanguinis |
| 1T-261 (SFEKNKIENNLKIAQAYIYIKPKPRICQA; Peptide with targeting and/or antimicrobial activity) | F. nucleatum; also recorded: S. mutans; also recorded: S. oralis; also recorded: S. sanguinis |
| 1T-264 (LEGKFYMAEDFDKTPECFKDYV; Peptide with targeting and/or antimicrobial activity) | S. sanguinis |
| 1T-266 (RAGTWLVVDEIR; Peptide with targeting and/or antimicrobial activity) | S. sanguinis |
| 1T-267 (RIKEERKNRSYKFFIWRLFDEKTGFI; Peptide with targeting and/or antimicrobial activity) | A. naeslundii; also recorded: F. nucleatum; also recorded: P. gingivalis; also recorded: T. denticola; also recorded: S. mitis; also recorded: S. mutans; also recorded: S. oralis; also recorded: S. sanguinis |
| 1T-268 (PITPKKEKCGLGTYAPKNPVFSKSRV; Peptide with targeting and/or antimicrobial activity) | F. nucleatum; also recorded: S. mutans; also recorded: S. oralis; also recorded: S. sanguinis |
| 1T-269 (PLYVAAVEKINTAKKH; Peptide with targeting and/or antimicrobial activity) | F. nucleatum; also recorded: S. mutans; also recorded: S. oralis; also recorded: S. sanguinis |
| 1T-270 (VHEFDIQKILQNR; Peptide with targeting and/or antimicrobial activity) | F. nucleatum; also recorded: S. mutans; also recorded: S. oralis; also recorded: S. sanguinis |
| 1T-272 (QLAPIDKQLKAVKKIAFYESESTAAKAVTVA; Peptide with targeting and/or antimicrobial activity) | F. nucleatum; also recorded: S. mutans; also recorded: S. oralis; also recorded: S. sanguinis |
| 1T-273 (YNEPNYKWLESYKIYKQRCEDRTGMYYTEET; Peptide with targeting and/or antimicrobial activity) | F. nucleatum; also recorded: P. gingivalis; also recorded: T. denticola; also recorded: S. mitis; also recorded: S. mutans; also recorded: S. oralis |
| 1T-274 (ETTTEINAIKLHRIKQRSPQGTRRVN; Peptide with targeting and/or antimicrobial activity) | F. nucleatum; also recorded: S. mutans; also recorded: S. oralis; also recorded: S. sanguinis |
| 1T-282 (ISLVFPAYT; Peptide with targeting and/or antimicrobial activity) | F. nucleatum; also recorded: P. gingivalis; also recorded: S. gordonii; also recorded: S. mitis; also recorded: S. mutans; also recorded: S. oralis; also recorded: S. salivarious; also recorded: S. sanguinis |
| 1T-286 (LGFFNNKADLVKADTERDNRMSSLKIKDL; Peptide with targeting and/or antimicrobial activity) | S. sanguinis |

same assay, conditions: peptide binding in aqueous buffers that varied with peptide solubility; preferably 1x PBS

| Substance | Target(s) (microorganism bound by the targeting peptide) |
| --- | --- |
| 1T-141 (KKFIILLFILVQGLIFSATKTLSDIIAL; Peptide with targeting and/or antimicrobial activity) | F. nucleatum; also recorded: P. gingivalis; also recorded: S. epidermidis; also recorded: S. gordonii; also recorded: S. mitis; also recorded: S. mutans; also recorded: S. oralis; also recorded: S. sanguinis |
| 1T-145 (VEAGKRNISLENIEKISKGLGISISELFKYIEEGEDKIG; Peptide with targeting and/or antimicrobial activity) | S. mitis; also recorded: S. mutans; also recorded: S. oralis |
| 1T-154 (YFSFLEIVGMARR; Peptide with targeting and/or antimicrobial activity) | P. gingivalis |
| 1T-159 (IFSLHHFALICSEMGTFAVSKRAKYKWEVL; Peptide with targeting and/or antimicrobial activity) | P. gingivalis |
| 1T-170 (AYGKVFSMDIMLSENDKLIVLRISHHSAWH; Peptide with targeting and/or antimicrobial activity) | P. gingivalis |
| 1T-177 (GTNVPTQILGYSREERFDYEPAPEQR; Peptide with targeting and/or antimicrobial activity) | P. gingivalis; also recorded: S. gordonii; also recorded: S. mitis; also recorded: S. mutans; also recorded: S. oralis; also recorded: S. salivarious; also recorded: S. sanguinis |
| 1T-185 (HYHFLLEFGFHKGDYLE; Peptide with targeting and/or antimicrobial activity) | A. naeslundii; also recorded: F. nucleatum; also recorded: P. gingivalis; also recorded: T. denticola; also recorded: S. gordonii |
